{"source": "patent US8192962B2", "about": "“Processes for detecting toxic substances” (Daikin Industries, Ltd., priority 2001, dated 2012)", "tested_on": "Transport facilitation protein genes", "assay": "DNA chip mRNA expression in yeast, transport facilitation protein genes (Table 5)", "type": "cell-based, Saccharomyces cerevisiae S288C", "in_short": "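S. cerevisiae S288C grown at 25° C. in YPD to log phase, then exposed 2 h to a toxicant at a growth-inhibiting, non-lethal concentration; untreated cells as control. Poly(A) mRNA reverse-transcribed with Cy3-dUTP or Cy5-dUTP, hybridized >12 h at 65° C. to whole-genome yeast DNA chip; value = fluorescence ratio treated/untreated.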", "data": [{"smiles": "CN(C)C(=S)SSC(=S)N(C)C", "note": "[(10), Tetramethylthiuram disulfide]", "values": [{"measurement": "The level of expressed mRNA in the presence of chemical substance/The level of expressed mRNA in the absence of chemical substance", "setting": "yeast gene YGR281W", "value": 1.4}, {"measurement": "The level of expressed mRNA in the presence of chemical substance/The level of expressed mRNA in the absence of chemical substance", "setting": "yeast gene YHL035C", "value": 4.6}, {"measurement": "The level of expressed mRNA in the presence of chemical substance/The level of expressed mRNA in the absence of chemical substance", "setting": "yeast gene YHL036W", "value": 4.4}, {"measurement": "The level of expressed mRNA in the presence of chemical substance/The level of expressed mRNA in the absence of chemical substance", "setting": "yeast gene YHL040C", "value": 11.3}, {"measurement": "The level of expressed mRNA in the presence of chemical substance/The level of expressed mRNA in the absence of chemical substance", "setting": "yeast gene YHL047C", "value": 11.9}, {"measurement": "The level of expressed mRNA in the presence of chemical substance/The level of expressed mRNA in the absence of chemical substance", "setting": "yeast gene YHR026W", "value": 0.9}, {"measurement": "The level of expressed mRNA in the presence of chemical substance/The level of expressed mRNA in the absence of chemical substance", "setting": "yeast gene YHR092C", "value": 0.9}, {"measurement": "The level of expressed mRNA in the presence of chemical substance/The level of expressed mRNA in the absence of chemical substance", "setting": "yeast gene YHR094C", "value": 1.2}, {"measurement": "The level of expressed mRNA in the presence of chemical substance/The level of expressed mRNA in the absence of chemical substance", "setting": "yeast gene YHR175W", "value": 2.0}, {"measurement": "The level of expressed mRNA in the presence of chemical substance/The level of expressed mRNA in the absence of chemical substance", "setting": "yeast gene YIL006W", "value": 1.1}, {"measurement": "The level of expressed mRNA in the presence of chemical substance/The level of expressed mRNA in the absence of chemical substance", "setting": "yeast gene YIL022W", "value": 1.3}, {"measurement": "The level of expressed mRNA in the presence of chemical substance/The level of expressed mRNA in the absence of chemical substance", "setting": "yeast gene YIL056W", "value": 1.6}, {"measurement": "The level of expressed mRNA in the presence of chemical substance/The level of expressed mRNA in the absence of chemical substance", "setting": "yeast gene YIL088C", "value": 1.7}, {"measurement": "The level of expressed mRNA in the presence of chemical substance/The level of expressed mRNA in the absence of chemical substance", "setting": "yeast gene YJL034W", "value": 1.1}, {"measurement": "The level of expressed mRNA in the presence of chemical substance/The level of expressed mRNA in the absence of chemical substance", "setting": "yeast gene YJL212C", "value": 1.3}, {"measurement": "The level of expressed mRNA in the presence of chemical substance/The level of expressed mRNA in the absence of chemical substance", "setting": "yeast gene YJL219W", "value": 2.3}, {"measurement": "The level of expressed mRNA in the presence of chemical substance/The level of expressed mRNA in the absence of chemical substance", "setting": "yeast gene YJR077C", "value": 0.7}, {"measurement": "The level of expressed mRNA in the presence of chemical substance/The level of expressed mRNA in the absence of chemical substance", "setting": "yeast gene YJR106W", "value": 1.6}, {"measurement": "The level of expressed mRNA in the presence of chemical substance/The level of expressed mRNA in the absence of chemical substance", "setting": "yeast gene YJR121W", "value": 1.3}, {"measurement": "The level of expressed mRNA in the presence of chemical substance/The level of expressed mRNA in the absence of chemical substance", "setting": "yeast gene YKL016C", "value": 1.8}, {"measurement": "The level of expressed mRNA in the presence of chemical substance/The level of expressed mRNA in the absence of chemical substance", "setting": "yeast gene YKL146W", "value": 2.8}, {"measurement": "The level of expressed mRNA in the presence of chemical substance/The level of expressed mRNA in the absence of chemical substance", "setting": "yeast gene YKL188C", "value": 2.8}, {"measurement": "The level of expressed mRNA in the presence of chemical substance/The level of expressed mRNA in the absence of chemical substance", "setting": "yeast gene YKR039W", "value": 2.0}, {"measurement": "The level of expressed mRNA in the presence of chemical substance/The level of expressed mRNA in the absence of chemical substance", "setting": "yeast gene YKR067W", "value": 2.3}, {"measurement": "The level of expressed mRNA in the presence of chemical substance/The level of expressed mRNA in the absence of chemical substance", "setting": "yeast gene YLL028W", "value": 2.3}, {"measurement": "The level of expressed mRNA in the presence of chemical substance/The level of expressed mRNA in the absence of chemical substance", "setting": "yeast gene YLL055W", "value": 14.0}, {"measurement": "The level of expressed mRNA in the presence of chemical substance/The level of expressed mRNA in the absence of chemical substance", "setting": "yeast gene YLR081W", "value": 2.2}, {"measurement": "The level of expressed mRNA in the presence of chemical substance/The level of expressed mRNA in the absence of chemical substance", "setting": "yeast gene YLR295C", "value": 1.2}, {"measurement": "The level of expressed mRNA in the presence of chemical substance/The level of expressed mRNA in the absence of chemical substance", "setting": "yeast gene YLR348C", "value": 1.3}, {"measurement": "The level of expressed mRNA in the presence of chemical substance/The level of expressed mRNA in the absence of chemical substance", "setting": "yeast gene YLR378C", "value": 0.7}, {"measurement": "The level of expressed mRNA in the presence of chemical substance/The level of expressed mRNA in the absence of chemical substance", "setting": "yeast gene YMR011W", "value": 0.7}, {"measurement": "The level of expressed mRNA in the presence of chemical substance/The level of expressed mRNA in the absence of chemical substance", "setting": "yeast gene YMR058W", "value": 1.4}, {"measurement": "The level of expressed mRNA in the presence of chemical substance/The level of expressed mRNA in the absence of chemical substance", "setting": "yeast gene YMR162C", "value": 1.0}, {"measurement": "The level of expressed mRNA in the presence of chemical substance/The level of expressed mRNA in the absence of chemical substance", "setting": "yeast gene YMR203W", "value": 1.2}, {"measurement": "The level of expressed mRNA in the presence of chemical substance/The level of expressed mRNA in the absence of chemical substance", "setting": "yeast gene YNL055C", "value": 1.0}, {"measurement": "The level of expressed mRNA in the presence of chemical substance/The level of expressed mRNA in the absence of chemical substance", "setting": "yeast gene YNL259C", "value": 2.1}, {"measurement": "The level of expressed mRNA in the presence of chemical substance/The level of expressed mRNA in the absence of chemical substance", "setting": "yeast gene YNR072W", "value": 1.8}, {"measurement": "The level of expressed mRNA in the presence of chemical substance/The level of expressed mRNA in the absence of chemical substance", "setting": "yeast gene YOL119C", "value": 7.4}, {"measurement": "The level of expressed mRNA in the presence of chemical substance/The level of expressed mRNA in the absence of chemical substance", "setting": "yeast gene YOL156W", "value": 2.1}, {"measurement": "The level of expressed mRNA in the presence of chemical substance/The level of expressed mRNA in the absence of chemical substance", "setting": "yeast gene YOL163W", "value": 6.2}, {"measurement": "The level of expressed mRNA in the presence of chemical substance/The level of expressed mRNA in the absence of chemical substance", "setting": "yeast gene YOR035C", "value": 1.7}, {"measurement": "The level of expressed mRNA in the presence of chemical substance/The level of expressed mRNA in the absence of chemical substance", "setting": "yeast gene YOR130C", "value": 1.7}, {"measurement": "The level of expressed mRNA in the presence of chemical substance/The level of expressed mRNA in the absence of chemical substance", "setting": "yeast gene YOR153W", "value": 1.2}, {"measurement": "The level of expressed mRNA in the presence of chemical substance/The level of expressed mRNA in the absence of chemical substance", "setting": "yeast gene YOR270C", "value": 0.9}, {"measurement": "The level of expressed mRNA in the presence of chemical substance/The level of expressed mRNA in the absence of chemical substance", "setting": "yeast gene YOR273C", "value": 0.5}, {"measurement": "The level of expressed mRNA in the presence of chemical substance/The level of expressed mRNA in the absence of chemical substance", "setting": "yeast gene YOR316C", "value": 2.0}, {"measurement": "The level of expressed mRNA in the presence of chemical substance/The level of expressed mRNA in the absence of chemical substance", "setting": "yeast gene YOR332W", "value": 1.1}, {"measurement": "The level of expressed mRNA in the presence of chemical substance/The level of expressed mRNA in the absence of chemical substance", "setting": "yeast gene YOR348C", "value": 0.4}, {"measurement": "The level of expressed mRNA in the presence of chemical substance/The level of expressed mRNA in the absence of chemical substance", "setting": "yeast gene YPL036W", "value": 0.3}, {"measurement": "The level of expressed mRNA in the presence of chemical substance/The level of expressed mRNA in the absence of chemical substance", "setting": "yeast gene YPL134C", "value": 0.8}, {"measurement": "The level of expressed mRNA in the presence of chemical substance/The level of expressed mRNA in the absence of chemical substance", "setting": "yeast gene YPL265W", "value": 1.2}, {"measurement": "The level of expressed mRNA in the presence of chemical substance/The level of expressed mRNA in the absence of chemical substance", "setting": "yeast gene YPL271W", "value": 1.2}, {"measurement": "The level of expressed mRNA in the presence of chemical substance/The level of expressed mRNA in the absence of chemical substance", "setting": "yeast gene YPR124W", "value": 1.5}, {"measurement": "The level of expressed mRNA in the presence of chemical substance/The level of expressed mRNA in the absence of chemical substance", "setting": "yeast gene YPR192W", "value": 1.3}, {"measurement": "The level of expressed mRNA in the presence of chemical substance/The level of expressed mRNA in the absence of chemical substance", "setting": "yeast gene YPR194C", "value": 0.6}]}]}
